Laboratory results reported in article PMC10340682, “Preparation and Identification of Peptides with α-Glucosidase Inhibitory Activity from Shiitake Mushroom (Lentinus edodes) Protein” (Foods, 2023).
Like-named read-outs stand apart in the source and are kept apart here. Residues, ends and D or L forms follow the SMILES beside them.

What was measured:
α-glucosidase [1] = target: T1, α-glucosidase (Saccharomyces cerevisiae, UniProt P53341); test: α-glucosidase inhibition activity (PNPG); type: biochemical; conditions: synthetic peptides; enzyme 0.2 U/mL, preincubation 25 °C 10 min, PNPG 5 mmol/L, 30 min 37 °C, 405 nm; mean ± SD, three repetitions
Source text: Shiitake mushrooms were acquired from a farmers’ market. Neutral protease (50 U/mg), pepsin (1:30,000), alkaline protease (200 U/mg), acid protease (50 U/mg), papain (800 U/mg), and flavor protease (20 U/mg) were purchased from Qiyi Biotechnology (Shanghai, China) Co., Ltd. α-glucosidase (10 U/mg) and 4-nitrophenyl a-D-glucopyranoside (PNPG, 99% purity) were purchased from Sigma-Aldrich (St. Louis, MO, USA). Acetonitrile (HPLC grade, 99.9% purity) was purchased from Fisher Chemical (Hampton, NH, USA). Formic acid (LC-MS grade, 99% purity) was purchased from Thermo Scientific (Waltham, MA, USA). Other reagents were of analytical grade and commercially available.
A quantity of 100 μL α-glucosidase solution (0.2 U/mL) was premixed with 50 μL sample solution in the enzyme label plate, and incubated at 25 °C for 10 min; 50 μL of PNPG (5 mmol/L) solution was added to start reactions, and incubation was continued for another 30 min at 37 °C. The reaction was terminated with 50 μL 0.67 mol/L Na2CO3 solution. The absorbance value was measured at 405 nm using an AMR-100 automatic enzyme label analyzer. The results were calculated using the following formula:Inhibitory rate (%) = ((Acontrol − Asample)/Acontrol) × 100(1)
All experiments had three repetitions. Data are expressed as mean ± standard deviation. Statistical significance (Duncan’s test, p < 0.05) was analyzed by DPS. Response surface data were analyzed using Design-ExpertV8.0.6 software.

α-glucosidase [2] = target: T1, α-glucosidase; set-up: method as in 7 sources, ref [4]; doi:10.1016/j.foodchem.2011.05.067; 4. Yu Z. Yin Y. Zhao W. Yu Y. Liu B. Liu J. Chen F. Novel peptides derived from egg white protein inhibiting alpha-glucosidase Food Chem. 2011 129 1376 1382 10.1016/j.foodchem.2011.05.067 ||| ref [25] = [25]; PMID 22953959; doi:10.1016/j.foodchem.2012.06.088; 25. Yu Z. Yin Y. Zhao W. Liu J. Chen F. Anti-diabetic activity peptides from albumin against alpha-glucosidase and alpha-amylase Food Chem. 2012 135 2078 2085 10.1016/j.foodchem.2012.06.088 22953959 ||| ref [10] = [10]; doi:10.1016/j.lwt.2021.113062; 10. Zhao Q. Wei G. Li K. Duan S. Ye R. Huang A. Identification and molecular docking of novel α-glucosidase inhibitory peptides from hydrolysates of Binglangjiang buffalo casein LWT 2022 156 113062 10 ||| ref [27] = [27]; PMID 36240562; doi:10.1016/j.foodchem.2022.134481; 27. Wang X. Deng Y. Xie P. Liu L. Zhang C. Cheng J. Zhang Y. Liu Y. Huang L. Jiang J. Novel bioactive peptides from ginkgo biloba seed protein and evaluation of their alpha-glucosidase inhibition acti ||| ref [43] = [43]; PMID 34920404; doi:10.1016/j.foodchem.2021.131717; 43. Chandrasekaran S. Gonzalez de Mejia E. Optimization, identification, and comparison of peptides from germinated chickpea ( Cicer arietinum ) protein hydrolysates using either papain or ficin and t ||| ...; conditions: cited from earlier work; for IC50 values: from germinated chickpea protein, ref [43]
[3] = from Binglangjiang buffalo casein, ref [10], read-out: IC50 values, inhibitory activity of α-glucosidase
[4] = from ginkgo biloba seed protein, ref [27], read-out: IC50 values, α-glucosidase inhibitory activity

T1 sequence (P53341 whole entry): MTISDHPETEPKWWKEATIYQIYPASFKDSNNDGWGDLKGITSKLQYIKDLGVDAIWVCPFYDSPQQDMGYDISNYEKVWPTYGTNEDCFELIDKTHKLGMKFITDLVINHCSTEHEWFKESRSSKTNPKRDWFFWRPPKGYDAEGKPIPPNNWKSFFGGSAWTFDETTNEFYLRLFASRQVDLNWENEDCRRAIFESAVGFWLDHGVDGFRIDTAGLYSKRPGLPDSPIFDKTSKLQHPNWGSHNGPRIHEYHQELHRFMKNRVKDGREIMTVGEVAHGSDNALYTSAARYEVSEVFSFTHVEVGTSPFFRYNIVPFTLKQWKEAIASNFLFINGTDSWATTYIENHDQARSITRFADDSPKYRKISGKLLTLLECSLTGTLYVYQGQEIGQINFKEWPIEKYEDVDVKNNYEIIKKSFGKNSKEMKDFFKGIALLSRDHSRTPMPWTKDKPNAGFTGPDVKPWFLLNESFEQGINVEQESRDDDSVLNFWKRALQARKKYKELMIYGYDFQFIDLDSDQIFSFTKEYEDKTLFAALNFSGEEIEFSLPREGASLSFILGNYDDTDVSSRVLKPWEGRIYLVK

Question: For CC(C)C[C@H](NC(=O)[C@H](CCCCN)NC(=O)[C@@H]1CCCN1C(=O)[C@H](CCC(=O)O)NC(=O)CNC(=O)[C@@H](N)CCC(=O)O)C(=O)N1CCC[C@H]1C(=O)O [EGEPKLP] (H-EGEPKLP-OH), which IC50 (α-glucosidase [1]) is on record?
Answer: 499 ± 39 µM

Question: Which IC50 (α-glucosidase [1]) does the source give for CC(C)C[C@H](NC(=O)[C@H](CC(=O)O)NC(=O)[C@H](CC(=O)O)NC(=O)[C@@H](N)CCCCN)C(=O)N[C@@H](CCCNC(=N)N)C(=O)N[C@@H](CO)C(=O)N1CCC[C@H]1C(=O)O [KDDLRSP] (H-KDDLRSP-OH) here?
Answer: 550 ± 37 µM

Question: Which IC50 (α-glucosidase [1]) does the source give for CC(C)C[C@H](NC(=O)[C@H](CCCCN)NC(=O)CNC(=O)[C@H](Cc1ccc(O)cc1)NC(=O)[C@H](CC(=O)O)NC(=O)[C@@H](N)CC(C)C)C(=O)O [LDYGKL] (H-LDYGKL-OH) here?
Answer: 696 ± 39 µM

Question: Which IC50 (α-glucosidase [1]) does the source give for CC(C)C[C@H](NC(=O)[C@H](CCCCN)NC(=O)[C@H](CC(C)C)NC(=O)[C@H](CCC(=O)O)NC(=O)[C@@H]1CCCN1C(=O)[C@@H](N)[C@@H](C)O)C(=O)O [TPELKL] (H-TPELKL-OH) here?
Answer: 452 ± 36 µM

Question: With “FALPQYLK [from Binglangjiang buffalo casein]” as the compound, how does the IC50 (α-glucosidase [2]; [3]) read?
Answer: 543 µM

Question: For GLAR [from germinated chickpea protein], which IC50 values (α-glucosidase [2]) is on record?
Answer: 8700 µg/mL

Question: Which IC50 (α-glucosidase [2]; from albumin, ref [25], read-out: IC50 of α-glucosidase inhibitory peptide) does the source give for KLPGF here?
Answer: 59.5 ± 5.7 µM

Question: With “LSMSFPPF [identified from ginkgo biloba seed protein]” as the compound, how does the IC50 (α-glucosidase [2]; [4]) read?
Answer: 454 ± 32.5 µM

Question: For “MPGPPSD [identified from ginkgo biloba seed protein]”, which IC50 (α-glucosidase [2]; [4]) is on record?
Answer: 944 ± 73.1 µM

Question: Which IC50 (α-glucosidase [2]; [3]) does the source give for “RNAVPITPTLNR [from Binglangjiang buffalo casein]” here?
Answer: 504 µM

Question: For “RVPSLM [identified from egg white protein]”, which IC50 (α-glucosidase [2]; identified from egg white protein, ref [4], read-out: IC50 value, α-glucosidase inhibitory activity) is on record?
Answer: 23.1 µM

Question: With “SPGAGKG [from germinated chickpea protein]” as the compound, how does the IC50 values (α-glucosidase [2]) read?
Answer: 1800 µg/mL

Question: For “TKVIPYVRYL [from Binglangjiang buffalo casein]”, which IC50 (α-glucosidase [2]; [3]) is on record?
Answer: 498 µM

Question: Which IC50 (α-glucosidase [2]; [4]) does the source give for “VPKIPPP [identified from ginkgo biloba seed protein]” here?
Answer: 1450 ± 67 µM

Question: Which IC50 (α-glucosidase [2]; [3]) does the source give for “YLGYLEQLLR [from Binglangjiang buffalo casein]” here?
Answer: 470 µM
